According to article PMC4949444 (Scientific Reports, 2016):

Assays:
STHdh^Q7/Q7 = assay: Serum deprivation survival of STHdh Q7/Q7 striatal neuroblasts (MTT); assay type: cell-based, mouse; settings: STHdh Q7/Q7, 72 h
Procedure: (§1) Figure 4 In vitro neuroprotective action of VCE-003.2. (a) HiB5 cells were treated with quinolinic acid (QA; 2,5 mM) in the presence or the absence of VCE-003.2 (50 and 250 nM) and cell viability was determined after 24 h by the MTT assay. (b) QA-induced apoptosis measured by cleaved caspase 3 immunostaining (upper panel) of differentiating HiB5 cells was quantified in the presence or absence of VCE-003.2 (250 nM). Cell counts were referred to total cell nuclei counterstained with DAPI and c-caspase3^+ cell quantification is shown in the lower panel. […]. (d) Aggregation of mut-Htt was assessed by fluorescence microscopy in immortalized striatal STHdh transfected cells with a CFP-tagged expression vector of mutant huntingtin (mut-Htt) and counterstained with fluorescent phalloidin (upper panel). […]. Results are representative of three independent experiments. Values are expressed as means ± S. D. *p < 0.05 and ***p < 0.001 vs. Vehicle; ^#p < 0.05 ^##p < 0.01 vs. QA. […]
(§2) The HiB5 hippocampal progenitor cell line (kindly provided by Prof. Z. Kokaia, Lund Stem Cell Center, Sweden) was grown as described[46] in DMEM supplemented with 2 mM glutamine, 1% penicillin/streptomycin and 10% (v/v) fetal calf serum (FCS; Lonza, Switzerland). […] Cell viability was determined after 24 h using the 3-[4,5-dimethylthiazol-2-yl]-2,5-diphenyltetrazolium bromide (MTT) tesresults int. […]

Nrf2 pathway = assay: Nrf2 transcriptional assay (NQO1-ARE-Luc) in N2a cells; assay type: cell-based; settings: 6 hours
Procedure: (§3) Nrf2 transcriptional assay: To study Nrf2 transcriptional activity N2a cells were seeded (105/ml) in 24-well plates and transientl y transfected with the plasmid NQO1-ARE-Luc using Roti©-Fect following the manufacturer’s instructions (Carl Roth, Karlsruhe, German y). After 24 hours, cells were incubated wi th the compounds at the concentrations indicated during 6 hours and the luciferase activit y was determined using an Autolumat LB 953 (EG&G Berthold, Bad Wildbad, Germany). Protein content was determined b y the Bradford method to calculate R LU/Pg of protein and the results were expressed as a fold induction over untreated cells.
Supplementary Figure S1. Non-elect rophilic activity for VCE-003.2. (a) Reactive ox ygen species production.
In cu c yt e TM Liv e-Cell Im agin g S ystem. Results are ex pressed as m ean of t otal integrated intensity (ROS positive cells) ± S.D. (b) Effect on Nrf2 transcriptional activity. N2a cells were transientl y trans fected with the NQO1-ARE-Luc plasmid and incubated with the indicated compound concentrations for 6 hours prior to luciferase activit y determination.
Results are expressed as the fold induction ± S.D. relative to untreated control. All the results are representative of at least three independent experiments. Statistics: **p<0.01 VCE-003 treatment vers us Vehicle treated cells.

[1] = Cysteamine recovery assay (thiol trapping)
Procedure: cysteamine to form polar and not extractable adducts.
Determination of ROS: N2a cells were seeded at 25x 10^3 cells/ml in 96-well plates and incubated with 0.25 ȝM 5-(and-6 )-chloro meth yl-2ƍ,7ƍ-dichlorodihydrofluorescein diacetate acet yl ester (C M-H 2 DCFDA) for 20 minutes at 37°C. Then, the cells were treated with either VCE-003 or VCE-003.2 for 2 hours. Cells exposed to pro-oxidant tert-Butyl h ydroperoxide (TBHP) were used as positive control. H 2 DCFDA oxidation was detected using an Incuc yteTM Live-Cell Imaging S ystem (Hertfordshire, UK).
as §3

CB2 receptor = biological target: T1, CB2 receptor (Homo sapiens, UniProt P34972); assay: CB2 receptor binding, [3H]CP55940 competition; settings: data not shown; read-out: predicted Ki, CB2 receptor
T1 construct: purchased Perkin-Elmer Life and Analytical Sciences, Boston, MA; host or cells: HEK293 EBNA cells stably expressing the receptor
T1 sequence (P34972 whole entry): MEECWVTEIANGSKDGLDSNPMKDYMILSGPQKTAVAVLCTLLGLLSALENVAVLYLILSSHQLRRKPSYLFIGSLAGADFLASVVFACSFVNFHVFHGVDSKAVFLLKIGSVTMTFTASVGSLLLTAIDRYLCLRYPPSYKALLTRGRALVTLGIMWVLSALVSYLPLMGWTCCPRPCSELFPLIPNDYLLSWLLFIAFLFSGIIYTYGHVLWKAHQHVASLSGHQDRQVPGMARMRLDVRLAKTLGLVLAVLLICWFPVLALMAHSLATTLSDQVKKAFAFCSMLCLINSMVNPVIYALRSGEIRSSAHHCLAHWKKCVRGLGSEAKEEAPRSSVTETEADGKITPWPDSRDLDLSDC
Procedure: CB1 and CB2 receptor binding affinities were determined by competition studies using [^3H]CP55940 as radioligand and commercial membrane preparations of HEK293 EBNA cells stably expressing the respective receptor type (Perkin-Elmer Life and Analytical Sciences, Boston, MA), following a procedure previously described.

HiB5 cells = assay: Quinolinic acid-induced cell death and apoptosis in HiB5 cells; assay type: cell-based
Procedure: as §1, §2

Q: For `CCCCCC1=C(NCC)C(=O)C(C/C=C(\C)CCC=C(C)C)=C(O)C1=O` [VCE-003.2], which “neuronal viability after serum deprivation” value (STHdh^Q7/Q7) is on record?
A: improved

Q: And the “activation of the Nrf2 pathway” value (Nrf2 pathway)?
A: none of these bioactivities were induced

Q: What about the “recovery after treatment with cysteamine (thiol-trapping reactivity)” value [1] of the same molecule?
A: recovered unscathed

Q: What about the Ki (CB2 receptor) of the same molecule?
A: > 40 µM

Q: What about the “QA-induced NP cell death” value (HiB5 cells; HiB5, QA 2,5 mM, VCE-003.2 50 and 250 nM, 24 h MTT) of the same molecule?
A: fully prevented

Q: What about the “QA-induced apoptosis (cleaved caspase 3)” value (HiB5 cells; differentiating HiB5, VCE-003.2 250 nM) of the same molecule?
A: significantly inhibited
